Test results: patent EP4745137A1 (Gluetacs Therapeutics (Shanghai) Co., Ltd., priority 2023, dated 2025)
pIC50: −log10 of the molar value. Read-outs that look alike come from different tables or passages of the source.

Legend:
[1] = biological target: T1, human Cereblon WT GST-tagged protein (Homo sapiens, UniProt Q96SW2); assay: CRBN-binding affinity by HTRF (CEREBLON BINDING kit)
T1 construct: purchased CISBIO 64BDCRBNPEH

IKZF3 = biological target: T2, IKZF3 (Homo sapiens, UniProt Q96SW2+Q9UKT9); assay: Western-blot assay of substrate protein degradation in hPBMCs, IKZF3; assay type: cell-based; details: 24 hours of compound treatment
T2 construct: endogenous in cells; host or cells: hPBMCs (Milecell Biotechnologies)

CK1α = biological target: T3, CK1α (Homo sapiens, UniProt P48729+Q96SW2); assay: Western-blot assay of substrate protein degradation in hPBMCs, CK1α; assay type: cell-based; details: 24 hours of compound treatment
T3 construct: endogenous in cells; host or cells: hPBMCs (Milecell Biotechnologies)

GSPT1 = biological target: T4, GSPT1 (Homo sapiens, UniProt P15170+Q96SW2); assay: Western-blot assay of substrate protein degradation in hPBMCs, GSPT1; assay type: cell-based; details: 24 hours of compound treatment
T4 construct: endogenous in cells; host or cells: hPBMCs (Milecell Biotechnologies)

IKZF1 = biological target: T5, IKZF1 (Homo sapiens, UniProt Q13422+Q96SW2); assay: Western-blot assay of substrate protein degradation in hPBMCs, IKZF1; assay type: cell-based; details: 24 hours of compound treatment
T5 construct: endogenous in cells; host or cells: hPBMCs (Milecell Biotechnologies)

IKZF2 = biological target: T6, IKZF2 (Homo sapiens, UniProt Q96SW2+Q9UKS7); assay: Western-blot assay of substrate protein degradation in hPBMCs, IKZF2; assay type: cell-based; details: 24 hours of compound treatment
T6 construct: endogenous in cells; host or cells: hPBMCs (Milecell Biotechnologies)

WEE1 = biological target: T7, WEE1 (Homo sapiens, UniProt P30291+Q96SW2); assay: Western-blot assay of substrate protein degradation in hPBMCs, WEE1; assay type: cell-based; details: 24 hours of compound treatment
T7 construct: endogenous in cells; host or cells: hPBMCs (Milecell Biotechnologies)

[2] = HTRF inhibitory activity, CEREBLON BINDING kit, read-out: HTRF IC50
[3] = 50 nM and 500 nM tested (concentration behind the class not stated)
[4] = compounds tested at 50 nM and 500 nM (concentration of the table not stated)

T4 sequence (P15170 whole entry): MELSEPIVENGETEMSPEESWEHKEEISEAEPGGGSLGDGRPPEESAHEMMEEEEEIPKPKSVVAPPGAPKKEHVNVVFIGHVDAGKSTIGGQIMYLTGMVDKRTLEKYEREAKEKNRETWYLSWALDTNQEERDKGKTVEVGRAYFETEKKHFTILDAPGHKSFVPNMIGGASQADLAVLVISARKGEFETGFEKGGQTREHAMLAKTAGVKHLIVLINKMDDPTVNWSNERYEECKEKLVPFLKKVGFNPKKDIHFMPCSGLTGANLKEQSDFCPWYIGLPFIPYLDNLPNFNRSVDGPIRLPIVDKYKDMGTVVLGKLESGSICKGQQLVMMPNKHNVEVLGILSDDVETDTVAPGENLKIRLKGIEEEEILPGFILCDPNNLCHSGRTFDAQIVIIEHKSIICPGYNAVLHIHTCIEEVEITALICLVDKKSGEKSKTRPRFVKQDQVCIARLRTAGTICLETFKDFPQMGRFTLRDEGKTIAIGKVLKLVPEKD
T4 sequence (Q96SW2 whole entry): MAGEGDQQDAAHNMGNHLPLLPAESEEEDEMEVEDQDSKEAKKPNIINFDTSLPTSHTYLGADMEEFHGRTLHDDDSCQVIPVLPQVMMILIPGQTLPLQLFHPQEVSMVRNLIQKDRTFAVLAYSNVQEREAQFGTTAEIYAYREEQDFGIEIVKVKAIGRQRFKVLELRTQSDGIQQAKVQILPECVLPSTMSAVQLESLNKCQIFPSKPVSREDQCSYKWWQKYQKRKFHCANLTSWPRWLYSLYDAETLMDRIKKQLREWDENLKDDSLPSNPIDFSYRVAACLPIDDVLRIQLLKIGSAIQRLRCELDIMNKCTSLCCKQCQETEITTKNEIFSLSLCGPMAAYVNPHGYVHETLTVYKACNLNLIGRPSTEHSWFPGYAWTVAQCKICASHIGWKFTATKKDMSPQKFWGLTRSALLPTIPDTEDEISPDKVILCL
T4 sequence (Q16531 whole entry partner): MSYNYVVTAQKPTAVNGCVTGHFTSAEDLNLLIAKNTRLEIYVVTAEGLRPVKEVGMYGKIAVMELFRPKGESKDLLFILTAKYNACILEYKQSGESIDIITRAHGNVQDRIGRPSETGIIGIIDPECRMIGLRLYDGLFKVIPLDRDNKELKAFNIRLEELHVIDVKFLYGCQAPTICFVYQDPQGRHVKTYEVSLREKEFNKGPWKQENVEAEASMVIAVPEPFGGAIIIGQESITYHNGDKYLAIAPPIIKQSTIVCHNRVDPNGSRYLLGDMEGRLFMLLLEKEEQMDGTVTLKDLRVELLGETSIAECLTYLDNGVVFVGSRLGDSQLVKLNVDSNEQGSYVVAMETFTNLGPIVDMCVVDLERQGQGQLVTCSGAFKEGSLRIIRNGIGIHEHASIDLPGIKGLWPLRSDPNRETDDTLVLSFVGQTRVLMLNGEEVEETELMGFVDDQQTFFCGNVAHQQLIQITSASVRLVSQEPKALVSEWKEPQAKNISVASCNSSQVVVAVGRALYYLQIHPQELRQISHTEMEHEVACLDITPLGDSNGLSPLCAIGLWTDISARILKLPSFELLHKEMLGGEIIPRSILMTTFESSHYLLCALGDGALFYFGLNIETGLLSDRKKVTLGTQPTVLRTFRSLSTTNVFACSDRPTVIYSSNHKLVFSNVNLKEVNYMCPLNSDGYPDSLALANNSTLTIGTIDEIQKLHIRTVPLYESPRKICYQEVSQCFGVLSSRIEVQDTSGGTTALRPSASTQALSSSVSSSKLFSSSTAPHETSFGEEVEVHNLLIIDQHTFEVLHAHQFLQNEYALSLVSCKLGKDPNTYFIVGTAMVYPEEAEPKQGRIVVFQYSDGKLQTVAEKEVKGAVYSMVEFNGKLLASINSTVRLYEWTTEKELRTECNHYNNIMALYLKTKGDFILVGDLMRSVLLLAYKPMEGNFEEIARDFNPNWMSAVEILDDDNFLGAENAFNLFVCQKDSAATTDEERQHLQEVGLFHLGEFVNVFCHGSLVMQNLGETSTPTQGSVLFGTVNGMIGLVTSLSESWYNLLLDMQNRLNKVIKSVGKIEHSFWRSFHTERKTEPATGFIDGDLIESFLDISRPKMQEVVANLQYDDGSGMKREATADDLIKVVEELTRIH
T7 sequence (P30291 whole entry): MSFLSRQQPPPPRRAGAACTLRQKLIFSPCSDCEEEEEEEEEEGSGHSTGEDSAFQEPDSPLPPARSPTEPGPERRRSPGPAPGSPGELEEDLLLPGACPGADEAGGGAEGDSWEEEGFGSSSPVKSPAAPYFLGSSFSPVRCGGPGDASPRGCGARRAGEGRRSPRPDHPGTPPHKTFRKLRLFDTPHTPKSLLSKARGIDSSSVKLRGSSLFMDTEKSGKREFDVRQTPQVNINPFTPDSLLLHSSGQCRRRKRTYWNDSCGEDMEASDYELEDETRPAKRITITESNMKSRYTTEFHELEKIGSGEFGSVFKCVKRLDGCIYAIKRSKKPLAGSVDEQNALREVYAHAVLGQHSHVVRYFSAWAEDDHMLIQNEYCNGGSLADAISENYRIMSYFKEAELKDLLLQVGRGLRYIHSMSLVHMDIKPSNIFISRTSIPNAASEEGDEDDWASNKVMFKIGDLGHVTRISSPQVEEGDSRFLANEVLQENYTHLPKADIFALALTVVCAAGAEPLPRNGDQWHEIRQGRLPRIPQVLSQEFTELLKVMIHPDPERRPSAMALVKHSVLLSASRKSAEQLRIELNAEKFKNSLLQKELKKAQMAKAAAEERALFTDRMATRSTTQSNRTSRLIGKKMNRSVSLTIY
T7 sequence (Q96SW2 whole entry): as the sequence (Q96SW2 whole entry) above
T7 sequence (Q16531 whole entry partner): as the sequence (Q16531 whole entry partner) above
T5 sequence (Q13422 whole entry): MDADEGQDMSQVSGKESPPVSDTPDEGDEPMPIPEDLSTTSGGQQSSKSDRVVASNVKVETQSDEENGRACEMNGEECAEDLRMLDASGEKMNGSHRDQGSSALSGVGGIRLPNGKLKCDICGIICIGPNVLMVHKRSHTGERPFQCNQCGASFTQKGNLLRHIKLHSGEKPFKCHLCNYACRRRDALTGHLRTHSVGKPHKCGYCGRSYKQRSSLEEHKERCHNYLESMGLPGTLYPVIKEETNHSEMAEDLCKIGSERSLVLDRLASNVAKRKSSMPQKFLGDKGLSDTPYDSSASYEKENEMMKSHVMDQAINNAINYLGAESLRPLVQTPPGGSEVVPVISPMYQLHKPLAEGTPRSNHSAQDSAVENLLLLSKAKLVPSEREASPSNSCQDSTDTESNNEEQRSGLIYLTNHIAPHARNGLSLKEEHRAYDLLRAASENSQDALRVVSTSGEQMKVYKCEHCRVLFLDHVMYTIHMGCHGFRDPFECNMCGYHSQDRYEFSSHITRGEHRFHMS
T5 sequence (Q96SW2 whole entry): as the sequence (Q96SW2 whole entry) above
T5 sequence (Q16531 whole entry partner): as the sequence (Q16531 whole entry partner) above
T3 sequence (P48729 whole entry): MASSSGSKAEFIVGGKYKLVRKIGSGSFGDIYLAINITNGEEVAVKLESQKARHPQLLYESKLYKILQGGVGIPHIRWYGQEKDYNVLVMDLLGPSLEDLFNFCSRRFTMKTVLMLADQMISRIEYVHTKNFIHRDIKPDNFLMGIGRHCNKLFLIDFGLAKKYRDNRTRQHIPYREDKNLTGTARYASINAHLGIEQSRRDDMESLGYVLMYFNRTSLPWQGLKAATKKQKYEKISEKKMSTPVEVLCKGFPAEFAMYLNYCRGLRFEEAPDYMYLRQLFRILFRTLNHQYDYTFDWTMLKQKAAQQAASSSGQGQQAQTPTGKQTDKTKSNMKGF
T3 sequence (Q96SW2 whole entry): as the sequence (Q96SW2 whole entry) above
T3 sequence (Q16531 whole entry partner): as the sequence (Q16531 whole entry partner) above
T1 sequence (Q96SW2 whole entry): as the sequence (Q96SW2 whole entry) above
T6 sequence (Q9UKS7 whole entry): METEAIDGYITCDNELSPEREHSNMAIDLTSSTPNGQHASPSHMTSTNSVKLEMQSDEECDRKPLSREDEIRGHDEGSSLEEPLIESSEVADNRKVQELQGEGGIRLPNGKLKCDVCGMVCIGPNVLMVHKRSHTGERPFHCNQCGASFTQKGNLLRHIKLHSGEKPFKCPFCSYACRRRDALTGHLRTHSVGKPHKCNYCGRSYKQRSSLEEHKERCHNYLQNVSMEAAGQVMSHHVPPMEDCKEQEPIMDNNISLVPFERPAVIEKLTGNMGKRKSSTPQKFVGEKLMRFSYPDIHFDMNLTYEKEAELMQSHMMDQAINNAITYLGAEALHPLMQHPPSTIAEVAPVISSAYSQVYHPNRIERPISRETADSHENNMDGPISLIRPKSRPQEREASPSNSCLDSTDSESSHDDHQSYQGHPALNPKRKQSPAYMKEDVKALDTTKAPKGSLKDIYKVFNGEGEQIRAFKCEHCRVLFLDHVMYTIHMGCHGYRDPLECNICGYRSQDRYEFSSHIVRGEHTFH
T6 sequence (Q96SW2 whole entry): as the sequence (Q96SW2 whole entry) above
T6 sequence (Q16531 whole entry partner): as the sequence (Q16531 whole entry partner) above

Structure (SMILES)	pIC50 [1, 2]	IKZF3 substrate protein remaining % (IKZF3; [3])	CK1a substrate protein remaining % (CK1α; [3])	GSPT1 substrate protein remaining % (GSPT1; [3])	IKZF 1 substrate protein remaining % (IKZF1; [3])	IKZF2 substrate protein remaining % (IKZF2; [3])	Weel substrate protein remaining % (WEE1; [3])	IKZF3 substrate protein remaining % (IKZF3; [4])	CK1a substrate protein remaining % (CK1α; [4])	GSPT1 substrate protein remaining % (GSPT1; [4])	IKZF 1 substrate protein remaining % (IKZF1; [4])	IKZF2 substrate protein remaining % (IKZF2; [4])	Weel substrate protein remaining % (WEE1; [4])	pIC50 [1]
O=C1CCC(N2C(=O)c3ccc(CN4CCN(c5ncnc6sc7c(c56)CCCC7)CC4)cc3C2=O)C(=O)N1 (centres unmarked) [GT-06564, 2-(2,6-dioxopiperidin-3-yl)-5-((4-(5,6,7,8-tetrahydrobenzo[4,5]thieno[2,3-d]pyrimidin-4-yl)piperazin-1-yl)methyl)isoindoline-1,3-dione]	6.00 to 6.30	A (0% ≤ substrate protein remaining % ≤ 80%)	A (0% ≤ substrate protein remaining % ≤ 80%)	A (0% ≤ substrate protein remaining % ≤ 80%)	A (0% ≤ substrate protein remaining % ≤ 80%)	A (0% ≤ substrate protein remaining % ≤ 80%)	A (0% ≤ substrate protein remaining % ≤ 80%)							
O=C1CCC(N2Cc3cc(CN4CCN(c5nccc(I)c5F)CC4)ccc3C2=O)C(=O)N1 (centres unmarked) [GT-04557, 3-(5-((4-(3-fluoro-4-iodopyridin-2-yl)piperazin-1-yl)methyl)-1-oxoisoindolin-2-yl)piperidine-2,6-dione]	6.00 to 6.30							A (0% ≤ substrate protein remaining % ≤ 80%)	A (0% ≤ substrate protein remaining % ≤ 80%)	A (0% ≤ substrate protein remaining % ≤ 80%)	A (0% ≤ substrate protein remaining % ≤ 80%)	A (0% ≤ substrate protein remaining % ≤ 80%)	A (0% ≤ substrate protein remaining % ≤ 80%)	
O=C1CCC(N2Cc3cc(CN4CCN(c5c(Cl)cncc5Br)CC4)ccc3C2=O)C(=O)N1 (centres unmarked) [GT-04600, 3-(5-((4-(3-bromo-5-chloropyridin-4-yl)piperazin-1-yl)methyl)-1-oxoisoindolin-2-yl)piperidine-2,6-dione]	6.00 to 6.30							A (0% ≤ substrate protein remaining % ≤ 80%)	B (80%< substrate protein remaining %≤ 100%)	A (0% ≤ substrate protein remaining % ≤ 80%)	A (0% ≤ substrate protein remaining % ≤ 80%)	A (0% ≤ substrate protein remaining % ≤ 80%)	A (0% ≤ substrate protein remaining % ≤ 80%)	
O=C1CCC(N2Cc3cc(CN4CCN(c5ncc(C(F)(F)F)cc5Cl)CC4)ccc3C2=O)C(=O)N1 (centres unmarked) [GT-04480, 3-(5-((4-(3-chloro-5-(trifluoromethyl)pyridin-2-yl)piperazin-1-yl)methyl)-1-oxoisoindolin-2-yl)piperidine-2,6-dione]	5.72 to 5.82							A (0% ≤ substrate protein remaining % ≤ 80%)	A (0% ≤ substrate protein remaining % ≤ 80%)	A (0% ≤ substrate protein remaining % ≤ 80%)	A (0% ≤ substrate protein remaining % ≤ 80%)	A (0% ≤ substrate protein remaining % ≤ 80%)	A (0% ≤ substrate protein remaining % ≤ 80%)	
CCc1cnc(C2CCN(Cc3ccc4c(c3)CN(C3CCC(=O)NC3=O)C4=O)CC2)nc1 (centres unmarked) [GT-04936, 3-(5-((4-(5-ethylpyrimidin-2-yl)piperidin-1-yl)methyl)-1-oxoisoindolin-2-yl)piperidine-2,6-dione]	5.82 to 6.00							A (0% ≤ substrate protein remaining % ≤ 80%)	A (0% ≤ substrate protein remaining % ≤ 80%)	A (0% ≤ substrate protein remaining % ≤ 80%)	A (0% ≤ substrate protein remaining % ≤ 80%)	A (0% ≤ substrate protein remaining % ≤ 80%)	A (0% ≤ substrate protein remaining % ≤ 80%)	
O=C1CCC(N2Cc3cc(CN4CCN(c5ncnc6sc(Br)cc56)CC4)ccc3C2=O)C(=O)N1 (centres unmarked) [GT-04861, 3-(5-((4-(6-bromothieno[2,3-d]pyrimidin-4-yl)piperazin-1-yl)methyl)-1-oxoisoindolin-2-yl)piperidine-2,6-dione]	> 6.30							A (0% ≤ substrate protein remaining % ≤ 80%)	A (0% ≤ substrate protein remaining % ≤ 80%)	A (0% ≤ substrate protein remaining % ≤ 80%)	A (0% ≤ substrate protein remaining % ≤ 80%)	A (0% ≤ substrate protein remaining % ≤ 80%)	A (0% ≤ substrate protein remaining % ≤ 80%)	
O=C1CCC(N2Cc3cc(CN4CCC(c5ccoc5)CC4)ccc3C2=O)C(=O)N1 (centres unmarked) [GT-04590, 3-(5-((4-(furan-3-yl)piperidin-1-yl)methyl)-1-oxoisoindolin-2-yl)piperidine-2,6-dione]	5.82 to 6.00							B (80%< substrate protein remaining %≤ 100%)	B (80%< substrate protein remaining %≤ 100%)	A (0% ≤ substrate protein remaining % ≤ 80%)	B (80%< substrate protein remaining %≤ 100%)	A (0% ≤ substrate protein remaining % ≤ 80%)	B (80%< substrate protein remaining %≤ 100%)	
O=C1CCC(N2Cc3cc(CN4CCC(N5C(=O)COc6cc(F)ccc65)CC4)ccc3C2=O)C(=O)N1 (centres unmarked) [GT-04860, 3-(5-((4-(7-fluoro-3-oxo-2,3-dihydro-4H-benzo[b][1,4]oxazin-4-yl)piperidin-1-yl)methyl)-1-oxoisoindolin-2-yl)piperidine-2,6-dione]								A (0% ≤ substrate protein remaining % ≤ 80%)	B (80%< substrate protein remaining %≤ 100%)	A (0% ≤ substrate protein remaining % ≤ 80%)	A (0% ≤ substrate protein remaining % ≤ 80%)	A (0% ≤ substrate protein remaining % ≤ 80%)	B (80%< substrate protein remaining %≤ 100%)	> 6.30
O=C1CCC(N2Cc3cc(CN4CCN(c5noc6ccncc56)CC4)ccc3C2=O)C(=O)N1 (centres unmarked) [GT-04904, 3-(5-((4-(isoxazolo[4,5-c]pyridin-3-yl)piperazin-1-yl)methyl)-1-oxoisoindolin-2-yl)piperidine-2,6-dione]	> 6.30							B (80%< substrate protein remaining %≤ 100%)	B (80%< substrate protein remaining %≤ 100%)	B (80%< substrate protein remaining %≤ 100%)	A (0% ≤ substrate protein remaining % ≤ 80%)	B (80%< substrate protein remaining %≤ 100%)	B (80%< substrate protein remaining %≤ 100%)	
Cc1sc2ncnc(C3=CCN(Cc4ccc5c(c4)C(=O)N(C4CCC(=O)NC4=O)C5=O)CC3)c2c1C (centres unmarked) [GT-06657, 5-((4-(5,6-dimethylthieno[2,3-d]pyrimidin-4-yl)-3,6-dihydropyridin-1 (2H)-yl)methyl)-2-(2,6-dioxopiperidin-3-yl)isoindoline-1,3-dione]	5.82 to 6.00	B (80%< substrate protein remaining %≤ 100%)	B (80%< substrate protein remaining %≤ 100%)	A (0% ≤ substrate protein remaining % ≤ 80%)	A (0% ≤ substrate protein remaining % ≤ 80%)	B (80%< substrate protein remaining %≤ 100%)	A (0% ≤ substrate protein remaining % ≤ 80%)							
O=C1CCC(N2Cc3cc(CN4CCN(c5ncnc6ccsc56)CC4)ccc3C2=O)C(=O)N1 (centres unmarked) [GT-04681, 3-(1-oxo-5-((4-(thieno[3,2-d]pyrimidin-4-yl)piperazin-1-yl)methyl)isoindolin-2-yl)piperidine-2,6-dione]	6.00 to 6.30							B (80%< substrate protein remaining %≤ 100%)	A (0% ≤ substrate protein remaining % ≤ 80%)	A (0% ≤ substrate protein remaining % ≤ 80%)	B (80%< substrate protein remaining %≤ 100%)	B (80%< substrate protein remaining %≤ 100%)	B (80%< substrate protein remaining %≤ 100%)	
